From patent US9073892B2, “Indazolyl triazol derivatives” (Merck Serono S.A., priority 2010, dated 2015)

Assays:
[1] = test system: IL1β-induced IL8 release in THP1 cells; experiment: IRAK IL8 secretion functional assay; type: cell-based; details: Homo sapiens; THP-1 cells, IL1β 100 ng/ml overnight, IL8 by HTRF; read-out: IC50, Secretion THP-1/IL-β induced IL8 release
Text: IRAK IL8 Secretion Functional Assay:
THP1 cells are human monocytes derived from acute monocytic leukemia. IL1β receptor expressed on the surface membrane of THP1 cells induced IL8 release. IRAKs are kinase signaling downstream of TLRs and TNF, IL-18, IL-33 and IL-1 receptors.
In cells, IRAK4 is upstream of IRAK1.
The Human IL8 Kit, provided by CysBio International based in Bagnols/Cèze FR, allows for the quantitative determination of IL-8 in cell-culture supernatants.
Anti-cytokine IL8 antibodies are respectively labeled with europium Cryptate and XL665. Upon their binding to IL-8 molecules, the two antibodies come into close proximity, allowing FRET (Fluorescence Resonance Energy Transfer) to occur. This FRET increases proportionally to IL-8 concentrations and be converted in IL8 pg amounts.
THP-1 cells are seeded on Day 1 in 384 well plate with RPMI 1640 at a density of 30 000 cells/well. Compounds 4×/2% DMSO (range of concentrations from 20 μM to 1 nM) and IL1β 4× at 100 ng/ml final are added to cells overnight at 37° C., 5% CO2. Measurement of IL-8 secretion is done by mixing on Day2 10 μl of supernatant with 10 μl of a mix solution of europium Cryptate and XL665 (v:v) as described by supplier.
HTRF (homogeneous time resolved fluorescence) signal is measured after 3 hours incubation time at 30° C. with a BMG Pherastar reader or equivalent.

IRAK1/4 human = test system: T1, IRAK1/4 human; experiment: IRAK1/4 phosphorylation IC50 (enzymatic assay, table 2); type: biochemical; details: human IRAK1/4 phosphorylation
T1 construct: fused on or other part: His tag and TEV cleavage site at the N-terminus
Summary of the method: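 His-TEV-tagged human IRAK-1 or IRAK-4 (IRAK-4 with STK1-biotin peptide) was incubated in 384-well plates with ATP and compounds in DMSO from 20 µM to 1 nM, with 2% DMSO controls. The buffer was Hepes pH7.0 50 mM with MgCl2, DTT, EGTA and BSA, and reactions ran 2 or 3 hours. Inhibition was reported as IC50.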

Structure (SMILES) | IC50 [1] | IC50 (IRAK1/4 human)
CCN(CC)CCCNC(=O)c1ccc(-n2cc(-c3n[nH]c4ccccc34)nn2)cc1 [Example 42, N-[3-(diethylamino)propyl]-4-[4-(1H-indazol-3-yl)-1H-1,2,3-triazol-1-yl]benzamide] | 0.1 to 1 µM | 0.1 to 1 µM
O=C(c1ccc(-n2cc(-c3n[nH]c4ccccc34)nn2)cc1F)N1CCOCC1 [Example 81, 3-{1-[3-fluoro-4-(morpholin-4-ylcarbonyl)phenyl]-1H-1,2,3-triazol-4-yl}-1H-indazole] | 0.1 to 1 µM | 0.1 to 1 µM
O=C(c1ccc(-n2cc(-c3n[nH]c4ccc(Cn5ncccc5=O)cc34)nn2)cc1)N1CCOCC1 [Example 95, 2-[(3-{1-[4-(morpholin-4-ylcarbonyl)phenyl]-1H-1,2,3-triazol-4-yl}-1H-indazol-5-yl)methyl]pyridazin-3(2H)-one] | 1 to 5 µM | 0.1 to 1 µM
CN(CCc1ccncc1)C(=O)c1ccc(-n2cc(-c3n[nH]c4ccccc34)nn2)cc1 [Example 43, 4-[4-(1H-indazol-3-yl)-1H-1,2,3-triazol-1-yl]-N-methyl-N-(2-pyridin-4-ylethyl)benzamide] | 0.1 to 1 µM | 0.1 to 1 µM
Cc1ccc2[nH]nc(-c3cn(-c4ccc(CN(C)C)cc4)nn3)c2c1 [Example 10, N,N-dimethyl-1-{4-[4-(5-methyl-1H-indazol-3-yl)-1H-1,2,3-triazol-1-yl]phenyl}methanamine] | 0.1 to 1 µM | 0.1 to 1 µM
Cc1ccc2[nH]nc(-c3cn(-c4ccc(CN5CCN(C)CC5)cc4)nn3)c2c1 [Example 9, 5-methyl-3-(1-{4-[(4-methylpiperazin-1-yl)methyl]phenyl}-1H-1,2,3-triazol-4-yl)-1H-indazole] | 0.1 to 1 µM | 1 to 5 µM
O=C(c1ccc(-n2cc(-c3n[nH]c4ccccc34)nn2)cc1C(F)(F)F)N1CCOCC1 [Example 101, 3-{1-[4-(morpholin-4-ylcarbonyl)-3-(trifluoromethyl)phenyl]-1H-1,2,3-triazol-4-yl}-1H-indazole] | 1 to 5 µM | 0.1 to 1 µM
O=C(c1ccc(-n2cc(-c3n[nH]c4ccc(Cn5nc(-c6cc(F)cc(F)c6)ccc5=O)cc34)nn2)cc1)N1CCOCC1 [Example 94, 6-(3,5-difluorophenyl)-2-[(3-{1-[4-(morpholin-4-ylcarbonyl)phenyl]-1H-1,2,3-triazol-4-yl}-1H-indazol-5-yl)methyl]pyridazin-3(2H)-one] | 0.1 to 1 µM | < 0.1 µM
O=C(c1ccc(-n2cc(-c3n[nH]c4ccccc34)nn2)cc1Cl)N1CCOCC1 [Example 89, 3-{1-[3-chloro-4-(morpholin-4-ylcarbonyl)phenyl]-1H-1,2,3-triazol-4-yl}-1H-indazole] | 1 to 5 µM | 0.1 to 1 µM
COc1cc(-n2cc(-c3n[nH]c4ccccc34)nn2)ccc1C(=O)N1CCOCC1 [Example 34, 3-{1-[3-methoxy-4-(morpholin-4-ylcarbonyl)phenyl]-1H-1,2,3-triazol-4-yl}-1H-indazole] | 0.1 to 1 µM | 1 to 5 µM
COCCNC(=O)c1ccc(-n2cc(-c3n[nH]c4ccccc34)nn2)cc1 [Example 50, 4-[4-(1H-indazol-3-yl)-1H-1,2,3-triazol-1-yl]-N-(2-methoxyethyl)benzamide] | 0.1 to 1 µM | 0.1 to 1 µM
Cc1ccc2[nH]nc(-c3cn(-c4ccc(CN5CCCC5)cc4)nn3)c2c1 [Example 6, 5-methyl-3-{1-[4-(pyrrolidin-1-ylmethyl)phenyl]-1H-1,2,3-triazol-4-yl}-1H-indazole] | 0.1 to 1 µM | 0.1 to 1 µM
Cc1ccc(=O)n(Cc2ccc3[nH]nc(-c4cn(-c5ccc(C(=O)N6CCOCC6)cc5)nn4)c3c2)n1 [Example 110] | 1 to 5 µM | 0.1 to 1 µM
CC1(C)CNCCC1c1ccc(-n2cc(-c3n[nH]c4ccccc34)nn2)cc1 (centres unmarked) [Example 277] |  | < 0.1 µM
FC(F)(F)c1cc(-n2cc(-c3n[nH]c4ccccc34)nn2)ccc1C1CCNCC1 [Example 263] |  | 0.1 to 1 µM
CC(C)N1CCN(C(=O)c2cccc(-n3cc(-c4n[nH]c5ccccc45)nn3)c2)CC1 [Example 66, 3-(1-{3-[(4-isopropylpiperazin-1-yl)carbonyl]phenyl}-1H-1,2,3-triazol-4-yl)-1H-indazole] |  | 1 to 5 µM
c1ccc2c(-c3cn(-c4ccc([C@H]5C[C@H]6CC[C@@H](C5)N6)cc4)nn3)n[nH]c2c1 [Example 256] |  | < 0.1 µM
c1ccc2c(-c3cn(-c4ccc(CN5CC6CCC(C5)O6)cc4)nn3)n[nH]c2c1 [Example 284] |  | 1 to 5 µM
O=C(c1ccc(-n2cc(-c3n[nH]c4cc(/C=C/CO)ccc34)nn2)cc1)N1CCOCC1 [Example 240] |  | < 0.1 µM

The next lines start with the values.

IC50 [1] | IC50 (IRAK1/4 human) | Structure (SMILES)
0.1 to 1 µM | 1 to 5 µM | O=C(c1ccc(-n2cc(-c3n[nH]c4ccccc34)nn2)cc1)N1CCCCC1 [Example 38, 3-{1-[4-(piperidin-1-ylcarbonyl)phenyl]-1H-1,2,3-triazol-4-yl}-1H-indazole]
0.1 to 1 µM | 0.1 to 1 µM | CN(C)C1CCN(C(=O)c2ccc(-n3cc(-c4n[nH]c5ccccc45)nn3)cc2)C1 (centres unmarked) [Example 27, 1-{4-[4-(1H-indazol-3-yl)-1H-1,2,3-triazol-1-yl]benzoyl}-N,N-dimethylpyrrolidin-3-amine]
0.1 to 1 µM | 0.1 to 1 µM | O=C(NCCN1CCCCC1)c1ccc(-n2cc(-c3n[nH]c4ccccc34)nn2)cc1 [Example 44, 4-[4-(1H-indazol-3-yl)-1H-1,2,3-triazol-1-yl]-N-(2-piperidin-1-ylethyl)benzamide]
< 0.1 µM | 0.1 to 1 µM | CN(C)C1CCN(C(=O)c2ccc(-n3cc(-c4n[nH]c5ccccc45)nn3)cc2)CC1 [Example 72, 1-{4-[4-(1H-indazol-3-yl)-1H-1,2,3-triazol-1-yl]benzoyl}-N,N-dimethylpiperidin-4-amine]
< 0.1 µM | < 0.1 µM | CN1CCCC2(CCCN(C(=O)c3ccc(-n4cc(-c5n[nH]c6ccccc56)nn4)cc3)C2)C1 (centres unmarked) [Example 76, 2-{4-[4-(1H-indazol-3-yl)-1H-1,2,3-triazol-1-yl]benzoyl}-8-methyl-2,8-diazaspiro[5.5]undecane]
0.1 to 1 µM | 0.1 to 1 µM | CN(C)C(=O)c1ccc(-n2cc(-c3n[nH]c4ccccc34)nn2)cc1 [Example 36, 4-[4-(1H-indazol-3-yl)-1H-1,2,3-triazol-1-yl]-N,N-dimethylbenzamide]
0.1 to 1 µM | 0.1 to 1 µM | CN(C)CCC1CCCCN1C(=O)c1ccc(-n2cc(-c3n[nH]c4ccccc34)nn2)cc1 (centres unmarked) [Example 92]
0.1 to 1 µM | < 0.1 µM | O=C(c1ccc(-n2cc(-c3n[nH]c4ccccc34)nn2)cc1)N1CCCC1 [Example 35, 3-{1-[4-(pyrrolidin-1-ylcarbonyl)phenyl]-1H-1,2,3-triazol-4-yl}-1H-indazole]
0.1 to 1 µM | 0.1 to 1 µM | CN1CCCN(C(=O)c2ccc(-n3cc(-c4n[nH]c5ccccc45)nn3)cc2)CC1 [Example 48, 3-(1-{4-[(4-methyl-1,4-diazepan-1-yl)carbonyl]phenyl}-1H-1,2,3-triazol-4-yl)-1H-indazole]
0.1 to 1 µM | 0.1 to 1 µM | O=C1CCCN1CC1CCCN(C(=O)c2ccc(-n3cc(-c4n[nH]c5ccccc45)nn3)cc2)C1 (centres unmarked) [Example 75, 1-[(1-{4-[4-(1H-indazol-3-yl)-1H-1,2,3-triazol-1-yl]benzoyl}piperidin-3-yl)methyl]pyrrolidin-2]
0.1 to 1 µM | < 0.1 µM | COC[C@@H]1CCCN1C(=O)c1ccc(-n2cc(-c3n[nH]c4ccccc34)nn2)cc1 [Example 108, 3-[1-(4-{[(2S)-2-(methoxymethyl)pyrrolidin-1-yl]carbonyl}phenyl)-1H-1,2,3-triazol-4-yl]-1H-indazole]
0.1 to 1 µM | < 0.1 µM | COC1CCCN(C(=O)c2ccc(-n3cc(-c4n[nH]c5ccccc45)nn3)cc2)C1 (centres unmarked) [Example 127]
< 0.1 µM | 0.1 to 1 µM | O=C(c1ccc(-n2cc(-c3n[nH]c4ccccc34)nn2)cc1)N1CCCC(C(=O)N2CCCC2)C1 (centres unmarked) [Example 73, 3-[1-(4-{[3-(pyrrolidin-1-ylcarbonyl)piperidin-1-yl]carbonyl}phenyl)-1H-1,2,3-triazol-4-yl]-1H-indazole]
0.1 to 1 µM | 0.1 to 1 µM | O=C(c1ccc(-n2cc(-c3n[nH]c4ccccc34)nn2)cc1)N1CCC(CO)CC1 [Example 28, (1-{4-[4-(1H-indazol-3-yl)-1H-1,2,3-triazol-1-yl]benzoyl}piperidin-4-yl)methanol]
 | 0.1 to 1 µM | CC(=O)N1CCC(c2ccc(-n3cc(-c4n[nH]c5ccccc45)nn3)cc2)CC1 [Example 134, 3-{1-[4-(1-acetylpiperidin-4-yl)phenyl]-1H-1,2,3-triazol-4-yl}-1H-indazole]
 | 0.1 to 1 µM | CN(C)C1CCN(C(=O)c2ccc(-n3cc(-c4n[nH]c5ccc(C6CCCC6)cc45)nn3)cc2)CC1 [Example 183]
